# Test results reported in US5502035A, “N-terminus modified analogs of LHRH” (Tap Holdings Inc., priority 1994, dated 1996).
# Non-standard residues stand in square brackets, D forms with d. Residues, ends and D or L forms follow the SMILES beside them. Groups on a side chain read outwards from the residue. *: point of attachment. dAla(benzothien-2-yl) = N[C@H](Cc1cc2ccccc2s1)C(=O)O; Shikimoyl = O=C(C1=C[C@@H](O)[C@@H](O)[C@H](O)C1)*; dPhe(4-Cl) = N[C@H](Cc1ccc(Cl)cc1)C(=O)O; d2Nal = N[C@H](Cc1ccc2ccccc2c1)C(=O)O; d(hCit) = NC(=O)NCCCC[C@@H](N)C(=O)O; Lys(iPr) = CC(C)NCCCC[C@H](N)C(=O)O; NMeY = CN[C@@H](Cc1ccc(O)cc1)C(=O)O; X10 = Cc1ccc(S(=O)(=O)NNC(=O)*)cc1; d3Pal = N[C@H](Cc1cccnc1)C(=O)O; NMeL = CN[C@@H](CC(C)C)C(=O)O; Nicotinoyl = O=C(c1cccnc1)*; Picolinoyl = O=C(c1ccccn1)*; X1 = O=C([C@@H]1CCCO1)*; X9 = O=C(c1ccc(O)nc1)*; azaGly = NNC(=O)O; Sar = CNCC(=O)O
# Target: T1, LHRH (Rattus norvegicus, UniProt P30969)
# T1 construct: endogenous in cells; host or cells: rat pituitary cells (own knowledge of the cited Haviv 1989 method)
# T1 sequence (P30969 1-327): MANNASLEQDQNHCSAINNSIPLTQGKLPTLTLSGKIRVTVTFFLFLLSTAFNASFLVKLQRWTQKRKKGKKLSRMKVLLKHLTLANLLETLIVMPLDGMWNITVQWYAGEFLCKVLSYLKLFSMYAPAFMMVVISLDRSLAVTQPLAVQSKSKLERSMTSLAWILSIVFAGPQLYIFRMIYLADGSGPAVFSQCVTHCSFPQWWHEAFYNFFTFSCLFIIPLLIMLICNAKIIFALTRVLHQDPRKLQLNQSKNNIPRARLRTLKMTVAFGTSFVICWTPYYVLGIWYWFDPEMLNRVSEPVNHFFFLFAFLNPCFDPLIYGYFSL
# Experiment: in vitro test for LHRH antagonist potency (pA2)
# Format: cell-based
# Conditions: negative logarithm of the antagonist concentration required to shift the response curve produced by the agonist leuprolide to two-fold higher concentration
# How it was run: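 Rat LHRH receptor in vitro functional test; pA2 = negative log of the antagonist concentration shifting the leuprolide agonist response curve to two-fold higher concentration.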
row,SMILES,Kb [nM]
1,"CC(C)C[C@H](NC(=O)[C@@H](CCCCNC(=O)CNC(=O)c1cccnc1)NC(=O)[C@H](Cc1ccc(O)cc1)N(C)C(=O)[C@H](CO)NC(=O)[C@@H](Cc1cccnc1)NC(=O)[C@@H](Cc1ccc(Cl)cc1)NC(=O)[C@@H](Cc1ccc2ccccc2c1)NC(=O)CNC(=O)C1CCCO1)C(=O)N[C@@H](CCCNC(=N)N)C(=O)N1CCC[C@H]1C(=O)N[C@H](C)C(N)=O (mixture of isomers) [Example 27b, N-(R,S)-Tetrahydrofur-2oyl-Gly-D2Nal-D4ClPhe-D3Pal-Ser-NMeTyr-DLys(Gly-Nic)-Leu-Arg-Pro-DAlaNH 2]",0.0135
2,"CC(C)C[C@H](NC(=O)[C@@H](CCCCNC(=O)C1=C[C@@H](O)[C@@H](O)[C@H](O)C1)NC(=O)[C@H](Cc1ccc(O)cc1)N(C)C(=O)[C@H](CO)NC(=O)[C@@H](Cc1cccnc1)NC(=O)[C@@H](Cc1ccc(Cl)cc1)NC(=O)[C@@H](Cc1ccc2ccccc2c1)NC(=O)[C@@H](C)NC(=O)C1=C[C@@H](O)[C@@H](O)[C@H](O)C1)C(=O)N[C@@H](CCCNC(=N)N)C(=O)N1CCC[C@H]1C(=O)N[C@H](C)C(N)=O [Example 14d, N-Shikimyl-DAla-D2Nal-D4ClPhe-D3Pal-Ser-NMeTyr-DLys(Shik)-Leu-Arg-Pro-DAlaNH2] (Shikimoyl-[dA][d2Nal][dPhe(4-Cl)][d3Pal]S[NMeY][dK](Shikimoyl)LRP[dA]-NH2)",0.00891
3,"CC(C)C[C@H](NC(=O)[C@@H](CCCCNC(=O)NNC(=O)c1cccnc1)NC(=O)[C@H](Cc1ccc(O)cc1)N(C)C(=O)[C@H](CO)NC(=O)[C@@H](Cc1cccnc1)NC(=O)[C@@H](Cc1ccc(Cl)cc1)NC(=O)[C@@H](Cc1ccc2ccccc2c1)NC(=O)CNC(=O)c1cccnc1)C(=O)N[C@@H](CCCCNC(C)C)C(=O)N1CCC[C@H]1C(=O)N[C@H](C)C(N)=O [Example 9, N-Nicotinyl-Gly-D2Nal-D4ClPhe-D3Pal-Ser-NMeTyr-DLys(Azagly-Nicotinyl)-Leu-Lys(N-epsilon-Isopropyl) -Pro-DAlaNH2] (Nicotinoyl-G[d2Nal][dPhe(4-Cl)][d3Pal]S[NMeY][dK]([azaGly-Nicotinoyl])L[Lys(iPr)]P[dA]-NH2)",0.0347
4,"CC(C)C[C@H](NC(=O)[C@@H](CCCCNC(N)=O)NC(=O)[C@H](Cc1ccc(O)cc1)NC(=O)[C@H](CO)NC(=O)[C@@H](Cc1cccnc1)NC(=O)[C@@H](Cc1ccc(Cl)cc1)NC(=O)[C@@H](Cc1ccc2ccccc2c1)NC(=O)CNC(=O)[C@@H]1CCCO1)C(=O)N[C@@H](CCCNC(=N)N)C(=O)N1CCC[C@H]1C(=O)N[C@H](C)C(N)=O [Example 95, N-(S)-2-Tetrahydrofuroyl-Gly-D2Nal-D4ClPhe-D3Pal-Ser-Tyr-DHcit-Leu-Arg-Pro- DAlaNH2] (X1-G[d2Nal][dPhe(4-Cl)][d3Pal]SY[d(hCit)]LRP[dA]-NH2)",0.00759
5,"CC(C)C[C@H](NC(=O)[C@@H](CCCCNC(=O)c1cccnc1)NC(=O)[C@H](Cc1ccc(O)cc1)N(C)C(=O)[C@H](CO)NC(=O)[C@@H](Cc1cccnc1)NC(=O)[C@@H](Cc1ccc(Cl)cc1)NC(=O)[C@@H](Cc1ccc2ccccc2c1)NC(=O)c1ccc(O)nc1)C(=O)N[C@@H](CCCCNC(C)C)C(=O)N1CCC[C@H]1C(=O)N[C@H](C)C(N)=O [Example 72f, N-(6-Hydroxy)nicotinyl-D2Nal-D4ClPhe-D3Pal-Ser-NMeTyr-DLys(Nic)-Leu-Lys(Isp)-Pro-DAlaNH2] (X9-[d2Nal][dPhe(4-Cl)][d3Pal]S[NMeY][dK](Nicotinoyl)L[Lys(iPr)]P[dA]-NH2)",0.01
6,"CC(C)C[C@H](NC(=O)[C@@H](CCCCNC(=O)c1cccnc1)NC(=O)[C@H](Cc1ccc(O)cc1)N(C)C(=O)[C@H](CO)NC(=O)[C@@H](Cc1cccnc1)NC(=O)[C@@H](Cc1ccc(Cl)cc1)NC(=O)[C@@H](Cc1ccc2ccccc2c1)NC(=O)CNC(=O)[C@@H]1CCCO1)C(=O)N[C@@H](CCCCNC(C)C)C(=O)N1CCC[C@@H]1C(=O)N[C@H](C)C(N)=O [Example 88, N (S)-2-Tetrahydrofuroyl-Gly-D2Nal-D4ClPhe-D3Pal-Ser-NMeTyr-DLys(N-epsilon-Nicotinyl) -Leu-Lys(N-epsilon-Isopropyl)-DPro-DAlaNH2]",0.158
7,"Cc1ccc(S(=O)(=O)NNC(=O)N[C@H](Cc2ccc3ccccc3c2)C(=O)N[C@H](Cc2ccc(Cl)cc2)C(=O)N[C@H](Cc2cccnc2)C(=O)N[C@@H](CO)C(=O)N(C)[C@@H](Cc2ccc(O)cc2)C(=O)N[C@H](CCCCNC(=O)c2cccnc2)C(=O)N[C@@H](CC(C)C)C(=O)N[C@@H](CCCCNC(C)C)C(=O)N2CCC[C@H]2C(=O)N[C@H](C)C(N)=O)cc1 [Example 37e, N-Tosyl-Azagly-D2Nal-D4ClPhe-D3Pal-Ser-NMeTyr-DLys(Nic)-Leu-Lys(Isp)-Pro-DAlaNH2] (X10-[d2Nal][dPhe(4-Cl)][d3Pal]S[NMeY][dK](Nicotinoyl)L[Lys(iPr)]P[dA]-NH2)",0.0224
8,"CC(C)C[C@H](NC(=O)[C@@H](CCCCNC(=O)C1=C[C@@H](O)[C@@H](O)[C@H](O)C1)NC(=O)[C@H](Cc1ccc(O)cc1)N(C)C(=O)[C@H](CO)NC(=O)[C@@H](Cc1cccnc1)NC(=O)[C@@H](Cc1ccc(Cl)cc1)NC(=O)[C@@H](Cc1ccc2ccccc2c1)NC(=O)[C@@H](CCCCNC(=O)C1=C[C@@H](O)[C@@H](O)[C@H](O)C1)NC(=O)C1=C[C@@H](O)[C@@H](O)[C@H](O)C1)C(=O)N[C@@H](CCCNC(=N)N)C(=O)N1CCC[C@H]1C(=O)N[C@H](C)C(N)=O [Example 14j, N-Shikimyl-DLys(Shik)-D2Nal-D4ClPhe-D3Pal-Ser-NMeTyr-DLys(Shik)-Leu-Arg-Pro-DAlaNH2] (Shikimoyl-[dK](Shikimoyl)[d2Nal][dPhe(4-Cl)][d3Pal]S[NMeY][dK](Shikimoyl)LRP[dA]-NH2)",0.759
9,"CC(C)C[C@@H](C(=O)N[C@@H](CCCNC(=N)N)C(=O)N1CCC[C@H]1C(=O)N[C@H](C)C(N)=O)N(C)C(=O)[C@@H](CCCCNC(=O)C1=C[C@@H](O)[C@@H](O)[C@H](O)C1)NC(=O)[C@H](Cc1ccc(O)cc1)N(C)C(=O)[C@H](CO)NC(=O)[C@@H](Cc1cccnc1)NC(=O)[C@@H](Cc1ccc(Cl)cc1)NC(=O)[C@@H](Cc1ccc2ccccc2c1)NC(=O)CNC(=O)C1=C[C@@H](O)[C@@H](O)[C@H](O)C1 [Example 18b, N-Shikimyl-Gly-D2Nal-D4ClPhe-D3Pal-Ser-NMeTyr-DLys(Shik)-NMeLeu-Arg-Pro-DAlaNH2] (Shikimoyl-G[d2Nal][dPhe(4-Cl)][d3Pal]S[NMeY][dK](Shikimoyl)[NMeL]RP[dA]-NH2)",0.00912
10,"CC(C)C[C@H](NC(=O)[C@@H](CCCCNC(=O)c1cccnc1)NC(=O)[C@H](Cc1ccc(O)cc1)NC(=O)[C@H](CO)NC(=O)[C@@H](Cc1cccnc1)NC(=O)[C@@H](Cc1ccc(Cl)cc1)NC(=O)[C@@H](Cc1ccc2ccccc2c1)NC(=O)C1=C[C@@H](O)[C@@H](O)[C@H](O)C1)C(=O)N[C@@H](CCCCNC(C)C)C(=O)N1CCC[C@H]1C(=O)N[C@H](C)C(N)=O [Example 75, N-Shikimyl-D2Nal-D4ClPhe-D3Pal-Ser-Tyr-DLys(Nic)-Leu-Lys(Isp)-Pro-DAlaNH2] (Shikimoyl-[d2Nal][dPhe(4-Cl)][d3Pal]SY[dK](Nicotinoyl)L[Lys(iPr)]P[dA]-NH2)",0.0112
11,"CC(C)C[C@H](NC(=O)[C@@H](CCCCNC(=O)c1cccnc1)NC(=O)[C@H](Cc1ccc(O)cc1)N(C)C(=O)[C@H](CO)NC(=O)[C@@H](Cc1cccnc1)NC(=O)[C@@H](Cc1ccc(Cl)cc1)NC(=O)[C@@H](Cc1ccc2ccccc2c1)NC(=O)CNC(=O)c1ccccn1)C(=O)N[C@@H](CCCCNC(C)C)C(=O)N1CCC[C@H]1C(=O)N[C@H](C)C(N)=O [Example 2e, N-Picolyl-Gly-D2Nal-D4ClPhe-D3Pal-Ser-NMeTyr-DLys(N-epsilon-Nicotinyl) -Leu-Lys(N-epsilon-Isopropyl)-Pro-DAlaNH2] (Picolinoyl-G[d2Nal][dPhe(4-Cl)][d3Pal]S[NMeY][dK](Nicotinoyl)L[Lys(iPr)]P[dA]-NH2; N-terminus assumed)",0.02
12,"CC(C)C[C@H](NC(=O)[C@@H](CCCCNC(=O)c1cccnc1)NC(=O)[C@H](Cc1ccc(O)cc1)N(C)C(=O)[C@H](CO)NC(=O)[C@@H](Cc1cc2ccccc2s1)NC(=O)[C@@H](Cc1ccc(Cl)cc1)NC(=O)NNC(=O)c1cccnc1)C(=O)N[C@@H](CCCCNC(C)C)C(=O)N1CCC[C@H]1C(=O)N[C@H](C)C(N)=O [Example 32, N-Nicotinyl-Azagly-D4ClPhe-DBal-Ser-NMeTyr-DLys(Nic)-Leu-Lys(Isp)-Pro-DAlaNH2] (Nicotinoyl-[azaGly][dPhe(4-Cl)][dAla(benzothien-2-yl)]S[NMeY][dK](Nicotinoyl)L[Lys(iPr)]P[dA]-NH2)",0.0141
13,"CC(C)C[C@H](NC(=O)[C@@H](CCCCNC(=O)c1cccnc1)NC(=O)[C@H](Cc1ccc(O)cc1)N(C)C(=O)[C@H](CO)NC(=O)[C@@H](Cc1cccnc1)NC(=O)[C@@H](Cc1ccc(Cl)cc1)NC(=O)CN(C)C(=O)CNC(=O)[C@@H]1CCCO1)C(=O)N[C@@H](CCCCNC(C)C)C(=O)N1CCC[C@H]1C(=O)N[C@H](C)C(N)=O [Example 101, N (S)-2-Tetrahydrofuroyl-Gly-Sar-D4ClPhe-D3Pal-Ser-NMeTyr-DLys(Nic)-Leu-Lys(Isp)-Pro-DAlaNH2] (X1-G[Sar][dPhe(4-Cl)][d3Pal]S[NMeY][dK](Nicotinoyl)L[Lys(iPr)]P[dA]-NH2)",42.7
14,"CC(C)C[C@H](NC(=O)[C@@H](CCCCNC(=O)C1=C[C@@H](O)[C@@H](O)[C@H](O)C1)NC(=O)[C@H](Cc1ccc(O)cc1)N(C)C(=O)[C@H](CO)NC(=O)[C@@H](Cc1cccnc1)NC(=O)[C@@H](Cc1ccc(Cl)cc1)NC(=O)[C@@H](Cc1ccc2ccccc2c1)NC(=O)[C@@H](CO)NC(=O)c1cccnc1)C(=O)N[C@@H](CCCNC(=N)N)C(=O)N1CCC[C@H]1C(=O)N[C@H](C)C(N)=O [Example 14e, N-Nicotinyl-DSer-D2Nal-D4ClPhe-D3Pal-Ser-NMeTyr-DLys(Shik)-Leu-Arg-Pro-DAlaNH2] (Nicotinoyl-[dS][d2Nal][dPhe(4-Cl)][d3Pal]S[NMeY][dK](Shikimoyl)LRP[dA]-NH2)",0.0195
